Measured values as given in ChEMBL document CHEMBL3301361, “Experimental in vitro DMPK and physicochemical data on a set of publicly disclosed compounds”.
Values after ≈ are worked out from the molar mass of the structure shown.

Columns and labels:
[1] = in vitro; conditions: SD, HW or BN, rat, plasma
[2] = in vitro; conditions: hepatocytes
[3] = in vitro; conditions: human, plasma
[4] = in vitro; conditions: human
[5] = in vitro; conditions: human, hepatocytes
[6] = physchem; conditions: octan-1-ol/water
[7] = physchem; conditions: pH 7.4 buffer

Structure (SMILES)	fraction unbound at 5 h [1]	hepatocyte CLint [2] [µL/min/1e6 cells]	fraction unbound at 5 h ([3]; PPB)	microsomal CLint ([4]; microsomes) [µL/min/mg]	hepatocyte CLint [5] [µL/min/1e6 cells]	logD ([6]; pH 7.4, LogD7.4)	solubility thermodynamic [7] [µM]	microsomal CLint ([4]; liver microsomes) [µL/min/mg]	logD ([6]; pH 7.4)	fraction unbound at 5 h [3]
O=c1[nH]c2c(O)ccc([C@@H](O)CN[C@H]3CCC[C@@H]3OCc3ccccc3)c2s1	0.179	108	0.069	26	–	–	–	–	–	–
O=C(CN1CCOCC1)Nc1ccc(-c2cccc3c(=O)cc(N4CCOCC4)oc23)cc1OCCN1CCCC1	–	–	–	–	5.5	–	–	–	–	–
COc1cc2nnc(C(N)=O)c(Nc3ccc(F)cc3F)c2cc1N1CCN(C)CC1	0.157	16	0.0948	33	–	2.36	–	–	–	–
COc1ncccc1-c1cccc2c(N)c3c(nc12)CN(C1CCC1)C3=O	–	–	–	–	4.88	–	–	–	–	–
O=C1NC(=O)C(c2cnc3ccccn23)=C1c1cn2c3c(cccc13)CN(C(=O)N1CCOCC1)CC2	0.114	38	0.142	–	–	1.79	0.6 (≈ 0.298 µg/mL)	42	–	–
Cc1ccc(N2CC(COc3ccc(-c4noc(C)n4)cc3)C2)nn1	0.0488	6	0.062	26.3	–	2.62	129 (≈ 43.5 µg/mL)	–	–	–
Cc1ccc(S(=O)(=O)Nc2c(C(=O)NC3CCCCC3)c(C)nn2-c2ccccc2)cc1	0.0214	12	0.0014	–	–	1.68	1410 (≈ 639 µg/mL)	38	–	–
Cc1ccc(S(=O)(=O)Nc2c(C(=O)NC3CCCCC3C)c(C)nn2-c2ccccc2)cc1 (stereo not drawn)	0.0224	17	0.0066	–	–	1.94	–	58	–	–
Cc1ccc(S(=O)(=O)Nc2c(C(=O)NCC(C)(C)C)c(C)nn2-c2ccccc2)cc1	0.0335	18	0.0082	27	–	1.46	–	–	–	–
CCC(C)NC(=O)c1c(C)nn(-c2ccccc2)c1NS(=O)(=O)c1ccc(C)cc1 (stereo not drawn)	0.0335	17.3	0.0059	15.7	–	0.66	–	–	–	–
Cc1ccc(S(=O)(=O)Nc2c(C(=O)NC(C)C(C)(C)C)c(C)nn2-c2ccccc2)cc1 (stereo not drawn)	0.0457	7	0.0127	–	–	1.21	–	31	–	–
Cc1ccc(S(=O)(=O)Nc2c(C(=O)N[C@H](C)C(C)(C)C)c(C)nn2-c2ccccc2)cc1	0.0374	8	0.0081	–	–	1.2	1000 (≈ 455 µg/mL)	42	–	–
Cc1ccc(S(=O)(=O)Nc2c(C(=O)N[C@@H](C)C(C)(C)C)c(C)nn2CC(F)(F)F)cc1	0.0274	18	0.0142	–	–	0.93	–	17	–	–
Cc1ccc(S(=O)(=O)Nc2c(C(=O)N[C@@H](C)C(C)(C)C)c(C)nn2C2CCCC2)cc1	0.0268	8	0.0214	21	–	2	–	–	–	–
COCC(C)n1nc(C)c(C(=O)N[C@@H](C)C(C)(C)C)c1NS(=O)(=O)c1ccc(C)cc1 (stereo partly drawn)	0.139	< 3	0.0836	–	–	0.61	–	6	–	–
COCCC(C)n1nc(C)c(C(=O)N[C@@H](C)C(C)(C)C)c1NS(=O)(=O)c1ccc(C)cc1 (stereo partly drawn)	0.276	9.9	0.101	3.9	–	0.78	–	–	–	–
Cc1ccc(S(=O)(=O)Nc2c(C(=O)N[C@@H](C)C(C)(C)C)c(C)nn2C2CCSCC2)cc1	0.0661	5	0.0532	–	–	1.29	912 (≈ 437 µg/mL)	25	–	–
CCC[C@@H](CNC(=O)c1nc(Cl)c(N)nc1N)[N+](C)(C)CCCc1ccc(OC)cc1	0.454	24	0.511	87.1	–	0.4	–	–	–	–

Structure (SMILES)	fraction unbound at 5 h [1]	hepatocyte CLint [2] [µL/min/1e6 cells]	fraction unbound at 5 h ([3]; PPB)	microsomal CLint ([4]; microsomes) [µL/min/mg]	hepatocyte CLint [5] [µL/min/1e6 cells]	logD ([6]; pH 7.4, LogD7.4)	solubility thermodynamic [7] [µM]	microsomal CLint ([4]; liver microsomes) [µL/min/mg]	logD ([6]; pH 7.4)	fraction unbound at 5 h [3]
Cn1cnc2c(-c3ccc(C4(N)CCC4)cc3)c(-c3ccccc3)ccc21	–	–	–	–	3.31	–	–	–	–	–
C[C@]12Cc3cnn(-c4ccc(F)cc4)c3C=C1CC[C@@]2(O)CCc1ccc(F)cc1C(N)=O	0.0046	52.5	0.0321	105	–	3.8	–	–	–	–
Cc1c(Cl)ccc(OC2CCN(CC3CCN([C@@H](Cc4ccc(F)cc4)C(=O)O)CC3)CC2)c1Cl	0.232	13.8	0.0374	–	–	–	–	< 3	–	–
C[C@@H]1CN(Cc2nnc(-c3cc(-c4cccc5[nH]ccc45)cc4[nH]ncc34)o2)C[C@H](C)O1	0.0313	55	0.0191	–	–	4.01	–	107	–	–
CC(C)c1nc2ccccc2n1-c1nc(N2CCOCC2)c2nc(OC3CN(C4CCS(=O)(=O)CC4)C3)n(C)c2n1	0.22	10	0.22	20.4	–	2.9	–	–	–	–
CC(C)(C)NC(=O)NCCN1CCC(CO)(CNC(=O)c2cc(Cl)cc(Cl)c2)CC1	–	–	–	–	7.08	–	–	–	–	–
O=C(O)c1ccc(-n2nc(C(F)(F)F)cc2-c2ccc(C(F)(F)F)cc2)cc1	–	–	–	–	9.33	–	–	–	–	–
COc1ccc(CNC(=O)Nc2ncc([N+](=O)[O-])s2)cc1	0.0108	91	0.0032	–	–	2.9	–	56	–	–
CC1(C)[C@@H]2CC[C@@]1(CS(=O)(=O)N1CCN(c3ccc(C(F)(F)F)cn3)CC1)C(=O)C2	0.0191	141	0.0092	–	–	–	–	51	–	–
O=C(NCC1(O)CCCCCC1)c1cc(-c2ccccc2C(=O)O)ccc1Cl	0.0909	12.5	0.089	–	–	-0.34	–	< 3	–	–
COc1ccc([C@]2(C#N)CC[C@@H](C(=O)O)CC2)cc1OC1CCCC1 [CILOMILAST]	0.0606	28	0.0116	13	–	0.76	–	–	–	–
CCc1cnn2c(NCc3ccc[n+]([O-])c3)cc(N3CCCC[C@H]3CCO)nc12 [DINACICLIB]	0.176	> 150	0.0988	> 150	–	–	–	–	–	–
Cc1c[nH]c(-c2cnc(NCCNc3ccc(C#N)cn3)nc2-c2ccc(Cl)cc2Cl)n1 [LADUVIGLUSIB]	0.0447	108	0.0187	96	–	3.86	0.4 (≈ 0.186 µg/mL)	–	–	–
CNCCC=C1c2ccccc2CCc2ccccc21 [NORTRIPTYLINE]	0.132	144	0.132	< 3	–	1.58	–	–	–	–
COc1ccc(CC(C)(C)NC[C@H](O)c2cc(O)cc3c2OCC(=O)N3)cc1 [OLODATEROL]	0.443	14	0.409	–	–	0.79	–	14	–	–
CC(C)(Cc1cccc(CC(=O)NCc2cccc(-c3ccc(O)cc3)c2)c1)NC[C@H](O)c1ccc(O)c(NS(C)(=O)=O)c1 [PF-00610355]	0.0818	37	0.0053	–	–	1.91	57.5 (≈ 35.5 µg/mL)	99	–	–
Cc1cccc([C@H](C)c2c[nH]c(=S)[nH]2)c1C [REZATOMIDINE]	0.19	25.7	–	24.6	–	–	–	–	2.9	0.17
